Test results taken from the supplement of paper PMC10307832.

How the values were obtained:
Assay in all cases: relative viability (nuclei count vs DMSO), 5 days (fraction); higher = more cells survive
A-427 = system: A-427
Outline: (§1)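 Lung cancer cell lines were seeded in 1536-well plates and dosed by pin tool the next day, with either a single drug or a fixed anchor-drug dose combined with five library-drug doses (not always all listed) spaced in √10 steps. Five days later, one step fixed the cells and stained their nuclei (final 0.05% Triton X-100, 1% formaldehyde, 1 ug/ml Hoechst), and nuclei were counted on 4× images. Relative viability is the nuclei count in treated wells divided by the count in vehicle wells, and each value is the median of duplicate plates.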

COR-L 105 = system: COR-L 105
Outline: as §1

H3255 = system: H3255
Outline: as §1

HCC-44 = system: HCC-44
Outline: as §1

HCC-827 = system: HCC-827
Outline: as §1

LCLC-103H = system: LCLC-103H
Outline: as §1

LOU-NH91 = system: LOU-NH91
Outline: as §1

LXF-289 = system: LXF-289
Outline: as §1

NCI-H1792 = system: NCI-H1792
Outline: as §1

NCI-H1793 = system: NCI-H1793
Outline: as §1

NCI-H1915 = system: NCI-H1915
Outline: as §1

NCI-H1944 = system: NCI-H1944
Outline: as §1

NCI-H1975 = system: NCI-H1975
Outline: as §1

NCI-H1993 = system: NCI-H1993
Outline: as §1

NCI-H2023 = system: NCI-H2023
Outline: as §1

NCI-H2087 = system: NCI-H2087
Outline: as §1

NCI-H2170 = system: NCI-H2170
Outline: as §1

NCI-H358 = system: NCI-H358
Outline: as §1

NCI-H520 = system: NCI-H520
Outline: as §1

SK-MES-1 = system: SK-MES-1
Outline: as §1

SW 1573 = system: SW 1573
Outline: as §1

## Cc1csc(=NC2CCCCC2)n1/N=C/c1ccc(O)c(O)c1O [MIM1] + Cc1nc(NC(=O)N2CCC[C@H]2C(N)=O)sc1-c1ccnc(C(C)(C)C(F)(F)F)c1 [Alpelisib] (partner 2 µM)
A-427; first compound 0.2 µM
  relative viability: 1.09
A-427; first compound 0.6325 µM
  relative viability: 1.06
A-427; first compound 2 µM
  relative viability: 1.15
A-427; first compound 6.325 µM
  relative viability: 1.06
A-427; first compound 20 µM
  relative viability: 0.335
COR-L 105; first compound 0.2 µM
  relative viability: 0.782
COR-L 105; first compound 0.6325 µM
  relative viability: 0.971
COR-L 105; first compound 2 µM
  relative viability: 0.849
COR-L 105; first compound 6.325 µM
  relative viability: 0.934
COR-L 105; first compound 20 µM
  relative viability: 0.966
H3255; first compound 0.2 µM
  relative viability: 0.753
H3255; first compound 0.6325 µM
  relative viability: 0.56
H3255; first compound 2 µM
  relative viability: 0.642
H3255; first compound 6.325 µM
  relative viability: 0.523
H3255; first compound 20 µM
  relative viability: 0.311
HCC-44; first compound 0.2 µM
  relative viability: 0.835
HCC-44; first compound 0.6325 µM
  relative viability: 0.838
HCC-44; first compound 2 µM
  relative viability: 0.577
HCC-44; first compound 6.325 µM
  relative viability: 0.498
HCC-44; first compound 20 µM
  relative viability: 0.137
HCC-827; first compound 0.2 µM
  relative viability: 0.953
HCC-827; first compound 0.6325 µM
  relative viability: 0.986
HCC-827; first compound 2 µM
  relative viability: 0.913
HCC-827; first compound 6.325 µM
  relative viability: 0.441
HCC-827; first compound 20 µM
  relative viability: 0.34
LCLC-103H; first compound 0.2 µM
  relative viability: 0.9
LCLC-103H; first compound 0.6325 µM
  relative viability: 1.08
LCLC-103H; first compound 2 µM
  relative viability: 1.08
LCLC-103H; first compound 6.325 µM
  relative viability: 0.913
LCLC-103H; first compound 20 µM
  relative viability: 0.928
LOU-NH91; first compound 0.2 µM
  relative viability: 0.704
LOU-NH91; first compound 0.6325 µM
  relative viability: 0.779
LOU-NH91; first compound 2 µM
  relative viability: 0.591
LOU-NH91; first compound 6.325 µM
  relative viability: 0.641
LOU-NH91; first compound 20 µM
  relative viability: 0.561
LXF-289; first compound 0.2 µM
  relative viability: 1.07
LXF-289; first compound 0.6325 µM
  relative viability: 0.998
LXF-289; first compound 2 µM
  relative viability: 1.02
LXF-289; first compound 6.325 µM
  relative viability: 0.82
LXF-289; first compound 20 µM
  relative viability: 0.609
NCI-H1792; first compound 0.2 µM
  relative viability: 0.67
NCI-H1792; first compound 0.6325 µM
  relative viability: 0.654
NCI-H1792; first compound 2 µM
  relative viability: 0.694
NCI-H1792; first compound 6.325 µM
  relative viability: 0.433
NCI-H1792; first compound 20 µM
  relative viability: 0.599
NCI-H1793; first compound 0.2 µM
  relative viability: 0.509
NCI-H1793; first compound 0.6325 µM
  relative viability: 0.584
NCI-H1793; first compound 2 µM
  relative viability: 0.717
NCI-H1793; first compound 6.325 µM
  relative viability: 0.579
NCI-H1793; first compound 20 µM
  relative viability: 0.804
NCI-H1915; first compound 0.2 µM
  relative viability: 1.14
NCI-H1915; first compound 0.6325 µM
  relative viability: 1.04
NCI-H1915; first compound 2 µM
  relative viability: 1.02
NCI-H1915; first compound 6.325 µM
  relative viability: 0.773
NCI-H1915; first compound 20 µM
  relative viability: 0.277
NCI-H1944; first compound 0.2 µM
  relative viability: 0.831
NCI-H1944; first compound 0.6325 µM
  relative viability: 0.849
NCI-H1944; first compound 2 µM
  relative viability: 0.671
NCI-H1944; first compound 6.325 µM
  relative viability: 0.733
NCI-H1944; first compound 20 µM
  relative viability: 0.882
NCI-H1975; first compound 0.2 µM
  relative viability: 0.63
NCI-H1975; first compound 0.6325 µM
  relative viability: 0.624
NCI-H1975; first compound 2 µM
  relative viability: 0.569
NCI-H1975; first compound 6.325 µM
  relative viability: 0.391
NCI-H1975; first compound 20 µM
  relative viability: 0.313
NCI-H1993; first compound 0.2 µM
  relative viability: 0.715
NCI-H1993; first compound 0.6325 µM
  relative viability: 0.619
NCI-H1993; first compound 2 µM
  relative viability: 0.758
NCI-H1993; first compound 6.325 µM
  relative viability: 0.724
NCI-H1993; first compound 20 µM
  relative viability: 0.55
NCI-H2023; first compound 0.2 µM
  relative viability: 0.564
NCI-H2023; first compound 0.6325 µM
  relative viability: 0.594
NCI-H2023; first compound 2 µM
  relative viability: 0.526
NCI-H2023; first compound 6.325 µM
  relative viability: 0.368
NCI-H2023; first compound 20 µM
  relative viability: 0.328
NCI-H2087; first compound 0.2 µM
  relative viability: 1.17
NCI-H2087; first compound 0.6325 µM
  relative viability: 1.2
NCI-H2087; first compound 2 µM
  relative viability: 1.06
NCI-H2087; first compound 6.325 µM
  relative viability: 0.886
NCI-H2087; first compound 20 µM
  relative viability: 0.706
NCI-H2170; first compound 0.2 µM
  relative viability: 0.769
NCI-H2170; first compound 0.6325 µM
  relative viability: 0.814
NCI-H2170; first compound 2 µM
  relative viability: 0.812
NCI-H2170; first compound 6.325 µM
  relative viability: 0.651
NCI-H2170; first compound 20 µM
  relative viability: 0.337
NCI-H358; first compound 0.2 µM
  relative viability: 0.829
NCI-H358; first compound 0.6325 µM
  relative viability: 0.881
NCI-H358; first compound 2 µM
  relative viability: 0.721
NCI-H358; first compound 6.325 µM
  relative viability: 0.383
NCI-H358; first compound 20 µM
  relative viability: 0.274
NCI-H520; first compound 0.2 µM
  relative viability: 0.902
NCI-H520; first compound 0.6325 µM
  relative viability: 0.9
NCI-H520; first compound 2 µM
  relative viability: 1.19
NCI-H520; first compound 6.325 µM
  relative viability: 0.633
NCI-H520; first compound 20 µM
  relative viability: 0.41
SK-MES-1; first compound 0.2 µM
  relative viability: 0.913
SK-MES-1; first compound 0.6325 µM
  relative viability: 0.774
SK-MES-1; first compound 2 µM
  relative viability: 0.813
SK-MES-1; first compound 6.325 µM
  relative viability: 0.8
SK-MES-1; first compound 20 µM
  relative viability: 0.725
SW 1573; first compound 0.2 µM
  relative viability: 0.809
SW 1573; first compound 0.6325 µM
  relative viability: 0.758
SW 1573; first compound 2 µM
  relative viability: 0.808
SW 1573; first compound 6.325 µM
  relative viability: 0.639
SW 1573; first compound 20 µM
  relative viability: 0.618
